One experiment deals with T1, P2X2/3 (Homo sapiens, UniProt P56373+Q9UBL9).
T1 sequence (P56373 1-397): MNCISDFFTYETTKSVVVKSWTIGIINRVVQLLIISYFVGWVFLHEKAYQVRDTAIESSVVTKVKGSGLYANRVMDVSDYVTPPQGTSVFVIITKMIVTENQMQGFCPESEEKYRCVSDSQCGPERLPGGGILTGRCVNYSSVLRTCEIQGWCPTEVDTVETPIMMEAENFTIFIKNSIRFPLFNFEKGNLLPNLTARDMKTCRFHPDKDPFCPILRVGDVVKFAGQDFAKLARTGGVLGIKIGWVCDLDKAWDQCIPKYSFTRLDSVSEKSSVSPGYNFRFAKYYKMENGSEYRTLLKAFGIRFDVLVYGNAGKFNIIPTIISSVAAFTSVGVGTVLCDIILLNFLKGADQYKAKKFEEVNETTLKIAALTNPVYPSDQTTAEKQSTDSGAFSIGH
T1 sequence (Q9UBL9 1-471): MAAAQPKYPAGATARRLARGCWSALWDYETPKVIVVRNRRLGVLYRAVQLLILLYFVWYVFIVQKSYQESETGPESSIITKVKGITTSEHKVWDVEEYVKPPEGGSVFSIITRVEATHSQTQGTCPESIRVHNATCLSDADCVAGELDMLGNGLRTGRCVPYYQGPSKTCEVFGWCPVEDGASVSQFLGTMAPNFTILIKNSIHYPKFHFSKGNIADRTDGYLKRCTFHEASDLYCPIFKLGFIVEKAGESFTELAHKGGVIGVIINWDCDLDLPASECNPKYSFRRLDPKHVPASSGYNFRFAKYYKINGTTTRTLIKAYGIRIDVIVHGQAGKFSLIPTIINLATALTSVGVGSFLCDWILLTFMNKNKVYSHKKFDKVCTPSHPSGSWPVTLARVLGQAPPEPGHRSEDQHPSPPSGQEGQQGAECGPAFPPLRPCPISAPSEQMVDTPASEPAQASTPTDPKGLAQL
The settings on record: Table 3B, iodo; from Jahangir et al; cited from earlier work.

The subject of experiment [1] is P2X3. The settings on record: Table 3B, iodo; from Jahangir et al; cited from earlier work.
For experiment [2], the system named is P2X3. Briefly: Mean pIC50s from Jahangir et al, P2X3. In kind it is cell-based. The settings on record: Table 3B, iodo; ratio from the Jahangir et al pIC50s.
Experiment [3] concerns P2X3. Put plainly: Mean pIC50s from Carter et al, P2X3. In kind it is cell-based.
Experiment [4] relates to P2X3. The settings on record: Table 3A, oxygen-linked; from Carter et al; cited from earlier work.
Experiment [5] deals with T2, human P2X3 receptor (homomeric P2X3 channels) (Homo sapiens, UniProt P56373).
T2 construct: expressed in transfected cells; host or cells: HEK293 human embryonic kidney cells (HEK-hP2X3)
T2 sequence (P56373 1-397): T1 sequence (P56373 1-397)
Put plainly: FlexStation calcium fluorescence assay, homomeric P2X3 channels in HEK293 cells. Type of experiment: cell-based. The settings on record: for Selectivity P2X3/P2X2/3: Ratio=10^(P2X3pIC50−P2X2/3pIC50). The method, then: (§1) 1321N1 human astrocytoma and HEK293 human embryonic kidney cells were stably transfected with human P2X2 and P2X3 receptor subunits to form heteromeric P2X2/3 channels and passaged in flasks. Additionally, HEK293 cells were stably transfected with human P2X3 receptor subunits to form homomeric P2X3 channels.
(§2) Approximately 24 hours before the FlexStation calcium fluorescence experiment, cells were released from their flasks, centrifuged and re-suspended in nutrient medium. The cells were aliquoted into black-wall, clear-bottom 96 well plates at a density of 25,000 cells per well and incubated overnight in a humidified, CO2-enriched (5%) atmosphere at 37° C.
(§3) On the day of the experiment, cells were washed with assay buffer (calcium- and magnesium-free Hank's balanced salt solution, 20 mM HEPES, 2 mM CaCl2; AB) and loaded with 4 μM Fluo-4 (P2X2/3) or Calcium 6 (Molecular Devices, according to manufacturer's instructions; P2X3) calcium-sensitive fluorescent dye in 100 μL AB.
(§4) After 1 hour of dye loading at 37° C., 1321N1-hP2X2/3 cells were washed two times with AB and test compound or vehicle added to each well in a total volume of 150 μL AB. HEK-hP2X3 cells were not washed because the Calcium 6 dye kit includes an extracellular dye that quenches unabsorbed Calcium 6 dye; test compound or vehicle were added directly to the assay plates to achieve the appropriate concentration of test compound in a total volume of 150 μL AB.
(§5) After 20 minutes incubation at room temperature and protected from light, the assay plates were loaded into the FlexStation microplate reader and baseline fluorescence measured with an excitation wavelength of 485 nm and emission wavelength readings centered at 525 nm (515 nm cut off).
(§6) The agonist was dispensed by the FlexStation during fluorescence measurement to construct agonist activation and antagonist inhibition curves. The final agonist concentration for inhibition was 1 μM α,β-meATP for P2X3 and 3 μM ATP for P2X2/3. Peak fluorescence was measured and curves generated using a four parameter nonlinear regression equation.

Experiment [6] concerns the target T3, human P2X2/3 (heteromeric P2X2/3 channels) (Homo sapiens, UniProt P56373+Q9UBL9).
T3 construct: expressed in transfected cells; host or cells: 1321N1 human astrocytoma cells (1321N1-hP2X2/3)
T3 sequence (P56373 1-397): T1 sequence (P56373 1-397)
T3 sequence (Q9UBL9 1-471): T1 sequence (Q9UBL9 1-471)
Briefly: FlexStation calcium fluorescence assay, heteromeric P2X2/3 channels in 1321N1 cells. Type of experiment: cell-based. The method, then:
as §1, §2, §3, §4, §5, §6

Where [7] appears, read: HEK293 cells, hP2X3, agonist 1 μM α,β-meATP, read-out: Average pIC50 P2X3 (converted).
Setting [8] is: 1321N1 cells, hP2X2/3, agonist 3 μM ATP, highest concentration tested is 10 μM, read-out: Average pIC50 P2X2/3 (converted).
The mark [9] stands for this setting: Table 3A, sulfur-linked, hP2X2/3, 1321N1 (astrocytoma) cells, highest concentration tested is 10 μM.

The values that follow come from US10822311B2, “Pyrimidines and variants thereof, and uses therefor” (Afferent Pharmaceuticals Inc., priority 2016, dated 2020).

Each structure is given as a SMILES string. Where two headings read alike, the source gives them in different places. Some results are limits rather than exact numbers.

Regarding `COc1cc(C(C)C)c(Oc2cnc(N)nc2NCCO)cc1I` [Row A, R = I], the “P2X2/3 mean pIC50, R = I” value on P2X2/3 is 7.8. The “P2X3 mean pIC50, R = I” value with P2X3 [1] is 8.0. Also, the “Selectivity, R = I” value in the experiment with P2X3 [2] was determined as 1.6.

On to `COc1cc(C(C)C)c(Oc2cnc(N)nc2N)cc1Cl` [Row D, X = O], for which the “Selectivity, X = O” value in the experiment with P2X3 [3] (Table 3A, oxygen-linked, ratio from the Carter et al pIC50s) stood at 4. For the same molecule, the “P2X3 mean pIC50, X = O” value in the experiment with P2X3 [4] is 7.6.

With `COc1cc(C(C)C)c(Oc2cnc(N)nc2N)cc1S(C)(=O)=O` [Row C, X = O], the “Selectivity, X = O” value with P2X3 [3] stood at 10. In the experiment on P2X3 [4], the “P2X3 mean pIC50, X = O” value was 7.0.

For the molecule `COc1cc(C(C)C)c(Oc2cnc(N)nc2N)cc1I` [Row B, X = O], the “Selectivity, X = O” value in the experiment on P2X3 [3] stood at 8. Further, in the experiment on P2X3 [4], the “P2X3 mean pIC50, X = O” value is listed as 8.0.

In the case of `COc1cc(Oc2cnc(NC3CCOCC3)nc2N)c(C(C)C)cc1OC` [Compound 28], the IC50 in experiment [5] (setting [7]) is 0.398 µM; in experiment [6] (setting [8]) it was 1.26 µM. The “Selectivity P2X3/P2X2/3” value in experiment [5] came out at 3.2.

As to `COc1cc(Sc2cnc(N)nc2N)c(C(C)C)cc1OC` [Compound 1], in experiment [5] (HEK293 cells, hP2X3, agonist 1 μM α,β-meATP), the “Average pIC50 P2X3” value is 7.0. Also, the “P2X3 mean pIC50, X = S” value in experiment [5] (Table 3A, sulfur-linked, hP2X3, HEK293 cells, listed as Row A, X = S) was found to be 7.0. In addition, the IC50 was 0.1 µM in experiment [5] (Table 3A, sulfur-linked, hP2X3, HEK293 cells, read-out: P2X3 mean pIC50, X = S (converted)) and over 10 µM in experiment [6] (Table 3A, sulfur-linked, hP2X2/3, 1321N1 (astrocytoma) cells, highest concentration tested is 10 μM, read-out: P2X2/3 mean pIC50, X = S (converted)). Further, the “Average pIC50 P2X2/3” value in experiment [6] (1321N1 cells, hP2X2/3, agonist 3 μM ATP, highest concentration tested is 10 μM) is under 5. In addition, the “P2X2/3 mean pIC50, X = S” value in experiment [6] (Table 3A, sulfur-linked, hP2X2/3, 1321N1 (astrocytoma) cells, highest concentration tested is 10 μM, listed as Row A, X = S) is under 5.

For `COc1cc(Oc2cnc(N)nc2N)c(C(C)C)cc1OC` [Row A, X = O], the “P2X3 mean pIC50, X = O” value with P2X3 [4] was 7.6.

As to `COCCOCCNc1ncc(Oc2cc(OC)c(OC)cc2C(C)C)c(N)n1` [Compound 24], the IC50 in experiment [5] (setting [7]) was 1.58 µM; in experiment [6] (setting [8]), over 10 µM. For the same molecule, the “Selectivity P2X3/P2X2/3” value in experiment [5] is over 5.9.

`COc1cc(Oc2cnc(N)nc2NC2CCOCC2)c(C(C)C)cc1OC` [Compound 40]: the IC50 in experiment [5] (setting [7]) was 1.26 µM; in experiment [6] (setting [8]) it was over 10 µM. For the same molecule, the “Selectivity P2X3/P2X2/3” value in experiment [5] is over 8.

Consider `COc1cc(Oc2cnc(N)nc2NCCO)c(C(C)C)cc1OC` [Compound 37], for which the IC50 in experiment [5] (setting [7]) is 1 µM; in experiment [6] (setting [8]), over 10 µM. Moreover, the “Selectivity P2X3/P2X2/3” value in experiment [5] is recorded as over 10.

Regarding `COc1cc(C(C)C)c(Oc2cnc(N)nc2NC(CO)CO)cc1I` [Row C, R = I], at P2X2/3, the “P2X2/3 mean pIC50, R = I” value was 8.3. In addition, the “P2X3 mean pIC50, R = I” value with P2X3 [1] is recorded as 8.7. The “Selectivity, R = I” value in the experiment on P2X3 [2] is recorded as 2.5.

With `COc1ccc(Oc2cnc(N)nc2N)c(C(C)C)n1` [Compound 14], the values for the IC50 in experiment [5] (setting [7]) and in experiment [6] (setting [8]) were 1.26 µM and over 10 µM, respectively.

As to `COc1cc(C(C)C)c(Oc2cnc(N)nc2NCC(O)CO)cc1I` (stereo not drawn) [Row B, R = I], on P2X2/3, the “P2X2/3 mean pIC50, R = I” value was 7.5. Besides, the “P2X3 mean pIC50, R = I” value with P2X3 [1] is given as 8.1. Further, the “Selectivity, R = I” value with P2X3 [2] turned out to be 4.0.

Consider `COc1cc(Oc2cnc(NCC(O)CO)nc2N)c(C(C)C)cc1OC` (stereo not drawn) [Compound 31], for which the values for the IC50 in experiment [5] (setting [7]) and in experiment [6] (setting [8]) were 0.2 µM and 3.98 µM, respectively. Besides, in experiment [5], the “Selectivity P2X3/P2X2/3” value is given as 21. For the same molecule, the “Selectivity, R = OMe” value in experiment [5] (Table 3B, P2X3 vs P2X2/3 potency ratio) stood at 20. Moreover, the “P2X3 mean pIC50, R = OMe” value in experiment [5] (Table 3B, hP2X3, HEK293 cells, Table 2) is 6.7. Moreover, the “P2X2/3 mean pIC50, R = OMe” value in experiment [6] (Table 3B, hP2X2/3, 1321N1 (astrocytoma) cells, Table 2) is 5.4.

On to `COc1cc(C(C)C)c(Sc2cnc(N)nc2N)cc1Cl` [Compound 9], for which the figures for the IC50 in experiment [5] (setting [7]) and in experiment [6] (setting [8]) were 0.158 µM and over 10 µM, respectively. Besides, the “P2X3 mean pIC50, X = S” value in experiment [5] (Table 3A, sulfur-linked, hP2X3, HEK293 cells) came to 6.8. Further, the “P2X2/3 mean pIC50, X = S” value in experiment [6] (setting [9]) is given as under 5.

Turning to `COc1cc(C(C)C)c(Sc2cnc(N)nc2N)cc1I` [Compound 4], the IC50 in experiment [5] (setting [7]) was 0.126 µM; in experiment [6] (setting [8]), 6.31 µM. Also, the “Selectivity, X = S” value in experiment [5] (Table 3A, sulfur-linked, P2X3 vs P2X2/3 potency ratio) is recorded as 48. Moreover, the “P2X2/3 mean pIC50, X = S” value in experiment [6] (setting [9]) was 5.2.

For the molecule `CCNc1ncc(Oc2cc(OC)c(OC)cc2C(C)C)c(N)n1` [Compound 29], the IC50 in experiment [5] (setting [7]) was 0.398 µM; in experiment [6] (setting [8]) it was 3.16 µM. Besides, in experiment [5], the “Selectivity P2X3/P2X2/3” value worked out at 9.3.

With `COc1cc(C(C)C)c(Sc2cnc(N)nc2N)cc1C(=O)O` [Compound 12], the IC50 is 5.01 µM in experiment [5] (setting [7]) and over 10 µM in experiment [6] (setting [8]).

For the molecule `COc1nc(C(C)C)c(Oc2cnc(N)nc2N)cc1C(F)(F)F` [Compound 18], the values for the IC50 in experiment [5] (setting [7]) and in experiment [6] (setting [8]) were 0.0631 µM and 1.58 µM, respectively.
